Source: ChEMBL document CHEMBL5113477, “Membrane acting Povarov-Doebner derived compounds potently disperse preformed multidrug resistant Gram-positive bacterial biofilms” (Eur J Med Chem, 2022)
Values after ≈ are worked out from the molar mass of the structure shown. Active and inactive are the calls of the source. The calls are words filed in the database; no cut-off is given here.

What was measured:
Staphylococcus aureus [1] = experiment: Antibacterial activity against methicillin-resistant Staphylococcus aureus USA 300 (ARLG 1644) assessed as reduction in visible bacterial growth incubated for 18 to 20 hrs by CLSI based broth microdilution analysis; assay type: functional; details: time 18-20 hrs
Staphylococcus aureus [2] = experiment: (§1) Synergistic antibiofilm activity against methicillin-resistant Staphylococcus aureus USA 300 in TSB broth assessed as dispersal of glucose-induced biofilm with distribution of ruptured bacteria components and debris at 4 ug/ml preincubated with glucose for 48 hrs followed by compound addition and further incubated for 24 hrs in presence of Bithionol by SEM analysis; assay type: functional, organism-based; details: dose 4.0 µg/ml
Staphylococcus aureus [3] = experiment: Antibiofilm activity against methicillin-resistant Staphylococcus aureus ATCC 33592 in TSB broth assessed as dispersal of glucose-induced biofilm at 8 to 16 ug/ml preincubated with glucose for 48 hrs followed by compound addition and measured after 24 hrs by crystal violet staining based analysis; assay type: functional; details: dose 8-16 µg/ml, at 8 to 16 µg/mL
Staphylococcus aureus [4] = experiment: Inhibition of biofilm formation in methicillin-resistant Staphylococcus aureus USA 300 in TSB broth at 0.0078 to 4 ug/ml incubated for 48 hrs in presence of glucose by crystal violet staining based analysis; assay type: functional, organism-based; details: dose 0.0078-4 µg/ml
Enterococcus faecium [5] = experiment: Antibiofilm activity against vancomycin-resistant Enterococcus faecium ATCC 700221 in TSB broth assessed as dispersal of glucose-induced biofilm preincubated with glucose for 48 hrs followed by compound addition and measured after 24 hrs by crystal violet staining based analysis; assay type: functional
Staphylococcus aureus [6] = experiment: as §1, with “biofilm” for “biofilm with distribution of ruptured bacteria components and debris at 4 ug/ml”, “crystal violet staining based checkerboard assay” for “SEM analysis”; assay type: functional
Staphylococcus aureus [7] = experiment: Antibacterial activity against methicillin-resistant Staphylococcus aureus USA 300 assessed as reduction in visible bacterial growth incubated for 18 to 20 hrs by CLSI based broth microdilution analysis; assay type: functional; details: time 18-20 hrs
Staphylococcus aureus [8] = experiment: (§2) Synergistic antibiofilm activity against methicillin-resistant Staphylococcus aureus USA 300 in TSB broth assessed as dispersal of glucose-induced biofilm at 1 ug/ml preincubated with glucose for 48 hrs followed by compound addition and further incubated for 24 hrs in presence of 1 ug/ml Bithionol and AgNO3 by crystal violet staining based analysis; assay type: functional; details: dose 1 µg/ml
Enterococcus faecalis [9] = experiment: Inhibition of biofilm formation in vancomycin-resistant Enterococcus faecalis ATCC 51575 in TSB broth at 0.0078 to 4 ug/ml incubated for 48 hrs in presence of glucose by crystal violet staining based analysis; assay type: functional, organism-based; details: dose 0.0078-4 µg/ml
Enterococcus faecalis [10] = experiment: (§3) Synergistic antibiofilm activity against vancomycin-resistant Enterococcus faecalis ATCC 51575 in TSB broth assessed as dispersal of glucose-induced biofilm preincubated with glucose for 48 hrs followed by compound addition and further incubated for 24 hrs in presence of Bithionol by crystal violet staining based checkerboard assay; assay type: functional
Staphylococcus aureus [11] = experiment: Antibacterial activity against Staphylococcus aureus ATCC 25923 assessed as reduction in visible bacterial growth incubated for 18 to 20 hrs by CLSI based broth microdilution analysis; assay type: functional; details: time 18-20 hrs
Listeria monocytogenes = experiment: Antibacterial activity against Listeria monocytogenes ATCC 19115 assessed as reduction in visible bacterial growth incubated for 18 to 20 hrs by CLSI based broth microdilution analysis; assay type: functional; details: time 18-20 hrs
Staphylococcus aureus [12] = experiment: as §2, with “at 2” for “at 1”, “of 0.5” for “of 1”; assay type: functional; details: dose 2 µg/ml
Cell membrane [13] = experiment: Induction of membrane depolarization in Staphylococcus aureus ATCC 25923 at 2 ug/ml incubated for 1 hr by DiOC23 dye based flow cytometry analysis; assay type: subcellular; details: dose 2.0 µg/ml
Enterococcus faecalis [14] = experiment: Antibacterial activity against Enterococcus faecalis ATCC 29212 assessed as reduction in visible bacterial growth incubated for 18 to 20 hrs by CLSI based broth microdilution analysis; assay type: functional; details: time 18-20 hrs
Staphylococcus aureus [15] = experiment: (§4) Synergistic antibiofilm activity against methicillin-resistant Staphylococcus aureus USA 300 in TSB broth assessed as dispersal of glucose-induced biofilm by measuring Bithionol MBEC preincubated with glucose for 48 hrs followed by compound addition and measured after 24 hrs by crystal violet staining based checkerboard assay; assay type: functional
Staphylococcus aureus [16] = experiment: Antibacterial activity against methicillin-resistant Staphylococcus aureus USA 300 (ARLG 1561) assessed as reduction in visible bacterial growth incubated for 18 to 20 hrs by CLSI based broth microdilution analysis; assay type: functional; details: time 18-20 hrs
Staphylococcus aureus [17] = experiment: Bactericidal activity against persister methicillin-resistant Staphylococcus aureus ATCC 33592 at 1 times MIC incubated for 8 hrs by time kill assay; assay type: functional
Staphylococcus aureus [18] = experiment: as §4, with “Nitroxoline” for “Bithionol”; assay type: functional
Staphylococcus aureus [19] = experiment: Antibacterial activity against methicillin-resistant Staphylococcus aureus USA 300 (ARLG 1569) assessed as reduction in visible bacterial growth incubated for 18 to 20 hrs by CLSI based broth microdilution analysis; assay type: functional; details: time 18-20 hrs
Enterococcus faecalis [20] = experiment: as §3, with “Nitroxoline” for “Bithionol”; assay type: functional
Staphylococcus aureus [21] = experiment: as §2, with “biofilm” for “biofilm at 1 ug/ml”, “Nitroxoline” for “1 ug/ml Bithionol and AgNO3”, “checkerboard assay” for “analysis”; assay type: functional
Enterococcus faecium [22] = experiment: Synergistic antibiofilm activity against vancomycin-resistant Enterococcus faecium ATCC 700221 in TSB broth assessed as dispersal of glucose-induced biofilm by measuring fractional inhibitory concentration index preincubated with glucose for 48 hrs followed by compound addition and further incubated for 24 hrs in presence of Nitroxoline by crystal violet staining based checkerboard assay; assay type: functional
Enterococcus faecalis [23] = experiment: Antibiofilm activity against vancomycin-resistant Enterococcus faecalis ATCC 51575 in TSB broth assessed as dispersal of glucose-induced biofilm preincubated with glucose for 48 hrs followed by compound addition and measured after 24 hrs by crystal violet staining based analysis; assay type: functional
Cell membrane [24] = experiment: Induction of cell membrane disruption in Staphylococcus aureus ATCC 25923 assessed as appearance of hairy protrusions at 2 ug/ml incubated for 30 mins by SEM analysis; assay type: subcellular; details: dose 2.0 µg/ml
Staphylococcus aureus [25] = experiment: Antibacterial activity against methicillin-resistant Staphylococcus aureus USA 300 (ARLG 1665) assessed as reduction in visible bacterial growth incubated for 18 to 20 hrs by CLSI based broth microdilution analysis; assay type: functional; details: time 18-20 hrs
Enterococcus faecium [26] = experiment: as §3, with “faecium” for “faecalis”, “700221” for “51575”; assay type: functional
Enterococcus faecium [27] = experiment: Inhibition of biofilm formation in vancomycin-resistant Enterococcus faecium ATCC 700221 in TSB broth at 0.0078 to 4 ug/ml incubated for 48 hrs in presence of glucose by crystal violet staining based analysis; assay type: functional, organism-based; details: dose 0.0078-4 µg/ml
Staphylococcus aureus [28] = experiment: Inhibition of cell wall synthesis in Staphylococcus aureus ATCC 25923 at 0.25 to 8 ug/ml by [glucosamine-6-3H]-N-acetyl-D-glucosamine incorporation assay; assay type: functional, organism-based; details: dose 0.25-8 µg/ml
Enterococcus faecalis [29] = experiment: Antibacterial activity against vancomycin-resistant Enterococcus faecalis ATCC 51575 assessed as reduction in visible bacterial growth incubated for 18 to 20 hrs by CLSI based broth microdilution analysis; assay type: functional; details: time 18-20 hrs
Staphylococcus aureus [30] = experiment: Synergistic antibiofilm activity against methicillin-resistant Staphylococcus aureus USA 300 in TSB broth assessed as dispersal of glucose-induced biofilm by measuring fractional inhibitory concentration index preincubated with glucose for 48 hrs followed by compound addition and further incubated for 24 hrs in presence of Bithionol by crystal violet staining based checkerboard assay; assay type: functional

SMILES: Oc1ccc([C@@H]2Nc3ccc(S(F)(F)(F)(F)F)cc3[C@H]3[C@@H]4CC[C@@H](C4)[C@H]32)cc1
- MBC (Staphylococcus aureus [1]): 2 µg/mL (≈ 4.79 µM)
- MIC (Staphylococcus aureus [1]): 1 µg/mL (≈ 2.4 µM)
- Activity (Staphylococcus aureus [2]): Active
- Activity (Staphylococcus aureus [3]): 70%
- inhibition (Staphylococcus aureus [4]): Active
- MBEC (Enterococcus faecium [5]): 32 µg/mL
- MBEC (Staphylococcus aureus [6]): 4 µg/mL
- MBC (Staphylococcus aureus [7]): 2 µg/mL (≈ 4.79 µM)
- MIC (Staphylococcus aureus [7]): 1 µg/mL (≈ 2.4 µM)
- Activity (Staphylococcus aureus [8]): >80%
- inhibition (Enterococcus faecalis [9]): Active
- MBEC (Enterococcus faecalis [10]): 2 µg/mL
- MBC (Staphylococcus aureus [11]): 2 µg/mL (≈ 4.79 µM)
- MIC (Staphylococcus aureus [11]): 2 µg/mL (≈ 4.79 µM)
- MIC (Listeria monocytogenes): 1 µg/mL (≈ 2.4 µM)
- Activity (Staphylococcus aureus [12]): >80%
- Activity (Cell membrane [13]): Active
- MBC (Enterococcus faecalis [14]): 2 µg/mL (≈ 4.79 µM)
- MIC (Enterococcus faecalis [14]): 2 µg/mL (≈ 4.79 µM)
- MBEC (Staphylococcus aureus [15]): 1 µg/mL
- MBC (Staphylococcus aureus [16]): 2 µg/mL (≈ 4.79 µM)
- MIC (Staphylococcus aureus [16]): 2 µg/mL (≈ 4.79 µM)
- Activity (Staphylococcus aureus [17]): 100%
- MBEC (Staphylococcus aureus [18]): 4 µg/mL
- MBC (Staphylococcus aureus [19]): 2 µg/mL (≈ 4.79 µM)
- MIC (Staphylococcus aureus [19]): 1 µg/mL (≈ 2.4 µM)
- MBEC (Enterococcus faecalis [20]): 4 µg/mL
- MBEC (Staphylococcus aureus [21]): 1 µg/mL
- fractional inhibitory concentration index (FICI) (Enterococcus faecium [22]): 0.16
- MBEC (Enterococcus faecalis [23]): 16 µg/mL
- Activity (Cell membrane [24]): Active
- MBC (Staphylococcus aureus [25]): 2 µg/mL (≈ 4.79 µM)
- MIC (Staphylococcus aureus [25]): 1 µg/mL (≈ 2.4 µM)
- MBEC (Enterococcus faecium [26]): 1 µg/mL
- inhibition (Enterococcus faecium [27]): Active
- inhibition (Staphylococcus aureus [28]): Active
- MBC (Enterococcus faecalis [29]): 2 µg/mL (≈ 4.79 µM)
- MIC (Enterococcus faecalis [29]): 2 µg/mL (≈ 4.79 µM)
- fractional inhibitory concentration index (FICI) (Staphylococcus aureus [30]): 0.25
